System: EBC-1 shMet-4.5 tumors
Assay: Combination efficacy of erlotinib with c-met knockdown (Dox) in the EBC-1 shMet-4.5 NSCLC xenograft model
Assay type: in vivo, nude mice (nu/nu)
Details: EBC-1 shMet-4.5 xenograft
Protocol: Test material. Erlotinib (Tarceva™) was provided by OSI Pharmaceuticals to the Formulations Department at Genentech and was weighed out along with a sufficient amount of vehicle (methylcellulose tween (MCT)). Materials were stored in a refrigerator set to maintain a temperature range of 4° C. to 8° C. Anti-c-met monovalent monoclonal antibody MetMAb (rhuOA5D5v2) (WO2007/063816) was provided by the Antibody Engineering Department at Genentech, Inc., in a clear liquid form. The EBC-1 cell line was obtained from Japanese Collection of Research Bioresources (JCRB). Species. Forty nude mice (nu/nu) were obtained from Charles River Laboratories (CRL) and were acclimatized for at least one week prior to being put on study. Animals were housed in ventilated caging systems in rooms with filters supplying High-Efficiency Particulate Air (HEPA). Only animals that appeared to be healthy and were free of obvious abnormalities were used for the study. Study design. EBC-1 cells were cultured in growth media that consisted of RPMI 1640 media (Invitrogen), 2 mM L-glutamine, and 10% fetal bovine serum. To prepare cells for inoculation into mice, cells were trypsinized, washed with ten milliliters of sterile 1× phosphate buffered saline (PBS). A subset of cells was counted by trypan blue exclusion and the remainder of cells was resuspended in 100 μl of sterile 1× PBS to a concentration of 5×10^7 cells per milliliter. Mice were inoculated subcutaneously in the right sub-scapular region with 5×10^6 EBC-1 cells. […] Mice in Group 1 (control group) were treated with 100 μL vehicle control, methylcellulose tween (MCT), every day (QD) via oral gavage (PO) and were switched to drinking water containing 5% sucrose. […] Dox and sucrose water was changed every 2-3 days. Erlotinib and MCT were dosed for 14 days, stopped for 6 days and then resumed for the remainder of the study (20 days). […] All studies and handling of mice complied with the Institutional Animal Care and Use Committee (IACUC) guidelines. [table] Tumor and Body Weight Measurement. […] Fowler Company, Inc.; Newton, Mass.). The following formula was used with Excel v11.2 (Microsoft Corporation; Redmond, Wash.) to calculate tumor volume: […] Efficacy Data Analysis. Tumor inhibition was plotted using KaleidaGraph 3.6 (Synergy Software; Reading, Pa.). Percent growth inhibition (% Inh) at Day 17 was calculated as follows: […] Tumor incidence (TI) was determined by the number of measurable tumors in each group at Day 17. […] Mean tumor volume and standard error of the mean (SEM) were calculated using JMP software, version 5.1.2 (SAS Institute; Cary, N.C.). Data analysis and generation of p-values using either Student's t-test or the Dunnett's t-test was also done using JMP software, version 5.1.2. […] Mice were then grouped into four treatment arms; […] Vehicles, Group 2: Doxycycline (Dox), Group 3: erlotinib (100 mg/kg), and Group 4: erlotinib+Dox (See Table 6).

[1] = 10 mice per group, any day during the study

C#Cc1cccc(Nc2ncnc3cc(OCCOC)c(OCCOC)cc23)c1 [erlotinib, N-(3-ethynylphenyl)-6,7-bis(2-methoxyethoxy)-4-quinazolinamine]
number of complete responses (CR; tumor regression of 100%) [1]: no | number of partial responses (PR; tumor regression >50% but <100% of starting tumor volume) [1]: no | reduction in tumor growth compared to the vehicle control (tumor inhibition) (nude mice, day 19, erlotinib 100 mg/kg PO QD, Dox in drinking water): −6%

Source: US20160303127A1, “COMBINATION THERAPY WITH C-MET AND EGFR ANTAGONISTS” (Genentech, Inc., priority 2008, published 2016)
